Assay results published in US20050256181A1, “Treating a viral disorder” (ELIXIR PHARMACEUTICALS, INC., priority 2004, published 2005).
pIC50: −log10 of the molar value.

The compounds below were run against T1, SirT1 (Homo sapiens, UniProt Q96EB6) (assay: SirT1 p53-382 enzymatic deacetylation assay (fluorogenic Fluor-de-Lys principle)).
T1 sequence (Q96EB6 1-747): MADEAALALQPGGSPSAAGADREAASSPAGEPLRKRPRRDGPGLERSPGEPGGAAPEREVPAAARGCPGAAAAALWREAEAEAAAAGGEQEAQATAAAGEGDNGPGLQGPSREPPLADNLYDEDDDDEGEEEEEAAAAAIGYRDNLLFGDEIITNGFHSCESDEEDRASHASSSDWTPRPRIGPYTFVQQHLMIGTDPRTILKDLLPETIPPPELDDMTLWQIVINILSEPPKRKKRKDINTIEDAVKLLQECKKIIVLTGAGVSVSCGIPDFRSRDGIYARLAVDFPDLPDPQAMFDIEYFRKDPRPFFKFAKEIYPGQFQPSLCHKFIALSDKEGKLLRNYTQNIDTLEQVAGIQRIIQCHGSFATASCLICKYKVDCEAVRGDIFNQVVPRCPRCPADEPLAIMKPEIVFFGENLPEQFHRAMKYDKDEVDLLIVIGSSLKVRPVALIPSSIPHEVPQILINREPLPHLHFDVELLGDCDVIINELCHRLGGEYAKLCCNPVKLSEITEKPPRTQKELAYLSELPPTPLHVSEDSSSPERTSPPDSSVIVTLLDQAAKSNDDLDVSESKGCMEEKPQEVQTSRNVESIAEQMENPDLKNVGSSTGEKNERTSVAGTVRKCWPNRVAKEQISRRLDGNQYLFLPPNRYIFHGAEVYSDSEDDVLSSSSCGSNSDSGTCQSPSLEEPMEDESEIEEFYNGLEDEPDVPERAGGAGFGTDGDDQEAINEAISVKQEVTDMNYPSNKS
Type: biochemical
From the text: An exemplary assay method includes a 1536 well format of the SirT1 enzymatic assay that is based on the commercial “Fluor-de-Lys” assay principle by Biomol, which is fluorogenic (www.biomol.com/store/Product_Data_PDFs/ak500.pdf). In this assay, deacetylation of the e-amino function of a lysyl residue is coupled to a fluorogenic “development step that is dependent on the unblocked e-amino functionality and generates fluorescent aminomethylcoumarin. Fluorescence can be read on a commercial macroscopic reader.
Compound `NC(=O)C1CCc2c1[nH]c1ccc(Cl)cc21` (centres unmarked) [Compound 1, 7-Chloro-1,2,3,4-tetrahydro-cyclopenta[b]indole-3-carboxylic acid amide] has a pIC50 of over 6.00. For `NC(=O)C1Cc2c([nH]c3ccccc23)CN1` (centres unmarked) [Compound 2, 2,3,4,9-Tetrahydro-1H-b-carboline-3-carboxylic acid amide], the pIC50 was under 5.00. `NC(=O)C1CCc2c([nH]c3ccc(Br)cc23)C1` (centres unmarked) [Compound 3, 6-Bromo-2,3,4,9-tetrahydro-1H-carbazole-2-carboxylic acid amide] showed a pIC50 of 5.00 to 6.00. Compound `NC(=O)C1CCc2c([nH]c3ccc(Cl)cc23)C1` (centres unmarked) [Compound 9, 6-Chloro-2,3,4,9-tetrahydro-1H-carbazole-2-carboxylic acid amide] has a pIC50 of under 5.00. In the case of `NC(=O)C1CCc2c1[nH]c1ccccc21` (centres unmarked) [Compound 10, 1,2,3,4-Tetrahydro-cyclopenta[b]indole-3-carboxylic acid amide], the pIC50 was 5.00 to 6.00. For `O=C(Nc1ccc(Cl)cn1)C1CCCc2c1[nH]c1ccc(Cl)cc21` (centres unmarked) [Compound 11, 6-Chloro-2,3,4,9-tetrahydro-1H-carbazole-1-carboxylic acid (5-chloro-pyridin-2-yl)-amide], the pIC50 was 5.00 to 6.00. `Cc1ccc2[nH]c3c(c2c1)CCCC3(C)C(N)=O` (centres unmarked) [Compound 12, 1,6-Dimethyl-2,3,4,9-tetrahydro-1H-carbazole-1-carboxylic acid amide] was tested, and the pIC50 was under 5.00. With `NC(=O)C1CCc2c([nH]c3ccc(OC(F)(F)F)cc23)C1` (centres unmarked) [Compound 13, 6-Trifluoromethoxy-2,3,4,9-tetrahydro-1H-carbazole-2-carboxylic acid amide] the pIC50 was under 5.00.
